Experimental data published in ChEMBL document CHEMBL1147499, “Chain-branched 1,3-dibenzylthioureas as vanilloid receptor 1 antagonists” (Bioorg Med Chem Lett, 2004).
pEC50, pIC50: −log10 of the molar value.

Columns and labels:
Rattus norvegicus [1] = species on record: Rattus norvegicus; test: Effective concentration of compound to induce 45 [Ca2+] influx in neonatal rat cultured spinal sensory neurons; assay type: functional
Rattus norvegicus [2] = species on record: Rattus norvegicus; test: Inhibitory concentration of compound against 45 [Ca2+] influx in neonatal rat cultured spinal sensory neurons; assay type: functional

pEC50 (Rattus norvegicus [1]) | pIC50 (Rattus norvegicus [2]) | SMILES
< 4.00 | 6.82 | CC(/N=C(\S)NCc1ccc(C(C)(C)C)cc1)c1ccc(NS(C)(=O)=O)cc1 (centres undefined)
< 4.00 | 6.44 | CCC(/N=C(\S)NCc1ccc(C(C)(C)C)cc1)c1ccc(NS(C)(=O)=O)cc1 (centres undefined)
< 4.00 | 7.30 | C[C@@H](NC(=S)NCc1ccc(C(C)(C)C)cc1)c1ccc(NS(C)(=O)=O)cc1
< 4.00 | 5.83 | C[C@H](/N=C(\S)NCc1ccc(C(C)(C)C)cc1)c1ccc(NS(C)(=O)=O)cc1
< 4.00 | 5.49 | CC(C)C(/N=C(\S)NCc1ccc(C(C)(C)C)cc1)c1ccc(NS(C)(=O)=O)cc1 (centres undefined)
< 4.00 | 5.83 | CCCC(/N=C(\S)NCc1ccc(C(C)(C)C)cc1)c1ccc(NS(C)(=O)=O)cc1 (centres undefined)
< 4.00 | 5.44 | CC(=O)Nc1ccc([C@@H](C)/N=C(\S)NCc2ccc(C(C)(C)C)cc2)cc1
< 4.00 | 7.30 | CC[C@@H](/N=C(\S)NCc1ccc(C(C)(C)C)cc1)c1ccc(NS(C)(=O)=O)cc1

Continued, compound first:

SMILES | pEC50 (Rattus norvegicus [1]) | pIC50 (Rattus norvegicus [2])
CC(C)(C)c1ccc(CNC(=S)NCc2ccc(NS(C)(=O)=O)cc2)cc1 | < 4.00 | –
C[C@@H](/N=C(\S)NCc1ccc(C(C)(C)C)cc1)c1ccc([N+](=O)[O-])cc1 | < 4.00 | 6.24
C[C@@H](/N=C(\S)NCc1ccc(C(C)(C)C)cc1)c1ccc(N)cc1 | < 4.00 | 5.48
Cc1ccc(C(C)/N=C(\S)NCc2ccc(C(C)(C)C)cc2)cc1 (centres undefined) | < 4.00 | 6.40
C[C@@H](/N=C(\S)NCc1ccc(C(C)(C)C)cc1)c1ccccc1 | < 4.00 | 5.30
C[C@@H](/N=C(\S)NCc1ccc(C(C)(C)C)cc1)c1ccc(C(C)(C)C)cc1 | < 4.00 | 5.46
C[C@H](/N=C(\S)NCc1ccc(C(C)(C)C)cc1)c1ccccc1 | < 4.00 | 4.59
C[C@H](/N=C(\S)NCc1ccc(C(C)(C)C)cc1)c1ccc([N+](=O)[O-])cc1 | < 4.00 | 4.83
CC(C)(C)c1ccc(C/N=C(\S)NC(c2ccccc2)c2ccc(NS(C)(=O)=O)cc2)cc1 (centres undefined) | < 4.00 | 4.78
Oc1cc2c(cc1O)CN(C(=S)NCCc1ccc(Cl)cc1)CCC2 [CAPSAZEPINE] | < 4.00 | –
